# The NIST ThermoML archive (doi:10.1016/j.fluid.2015.08.029)
# ± gives the expanded uncertainty stated by the source.
# Experiment: xn = mol fraction of the nth substance listed
# Settings: Fluid (supercritical or subcritical phases), Buoyancy - hydrostatic balance with magnetic suspension - one sinker, x2 = 0.95
smiles,measurement,setting,value
C [methane] + O=C=O,mass density,"305.16 K, 9767.1 kPa",617.141 ± 1.5 kg/m3
same,mass density,"305.16 K, 9967.5 kPa",629.726 ± 1.3 kg/m3
same,mass density,"305.17 K, 9370.3 kPa",584.841 ± 1.9 kg/m3
same,mass density,"306.1 K, 7971 kPa",291.729 ± 1.4 kg/m3
same,mass density,"306.14 K, 8569.3 kPa",407.211 ± 3.1 kg/m3
same,mass density,"306.15 K, 8769.4 kPa",456.137 ± 3.2 kg/m3
same,mass density,"306.15 K, 9367.9 kPa",559.009 ± 2.1 kg/m3
same,mass density,"306.15 K, 9567.4 kPa",580.099 ± 1.8 kg/m3
same,mass density,"306.15 K, 9767.6 kPa",597.343 ± 1.6 kg/m3
same,mass density,"306.16 K, 9168.1 kPa",532.249 ± 2.5 kg/m3
same,mass density,"306.17 K, 8170.1 kPa",321.108 ± 1.9 kg/m3
same,mass density,"306.17 K, 8969 kPa",498.232 ± 2.9 kg/m3
same,mass density,"306.17 K, 9967.5 kPa",611.559 ± 1.5 kg/m3
same,mass density,"306.18 K, 8370.6 kPa",359.348 ± 2.5 kg/m3
same,mass density,"307.11 K, 7970.8 kPa",279.021 ± 1.2 kg/m3
same,mass density,"307.15 K, 8769.2 kPa",417.545 ± 2.9 kg/m3
same,mass density,"307.15 K, 9369.4 kPa",530.475 ± 2.3 kg/m3
same,mass density,"307.15 K, 9968.3 kPa",592.558 ± 1.6 kg/m3
same,mass density,"307.16 K, 8569.4 kPa",373.594 ± 2.5 kg/m3
same,mass density,"307.16 K, 9769.9 kPa",575.499 ± 1.8 kg/m3
same,mass density,"307.17 K, 8370.1 kPa",335.111 ± 1.9 kg/m3
same,mass density,"307.17 K, 9567.7 kPa",554.846 ± 2 kg/m3
same,mass density,"307.18 K, 8170.2 kPa",303.687 ± 1.5 kg/m3
same,mass density,"307.18 K, 8969.6 kPa",460.414 ± 2.9 kg/m3
same,mass density,"307.19 K, 9168.1 kPa",498.151 ± 2.7 kg/m3
same,mass density,"308.14 K, 7971.8 kPa",268.365 ± 1 kg/m3
same,mass density,"308.15 K, 8969.6 kPa",425.843 ± 2.7 kg/m3
same,mass density,"308.16 K, 8773.5 kPa",385.91 ± 2.4 kg/m3
same,mass density,"308.16 K, 9568.1 kPa",527.899 ± 2.2 kg/m3
same,mass density,"308.16 K, 9772 kPa",552.011 ± 1.9 kg/m3
same,mass density,"308.16 K, 9967.3 kPa",570.979 ± 1.7 kg/m3
same,mass density,"308.17 K, 8171.2 kPa",290.106 ± 1.2 kg/m3
same,mass density,"308.17 K, 8372.6 kPa",316.707 ± 1.5 kg/m3
same,mass density,"308.17 K, 9169 kPa",464.65 ± 2.7 kg/m3
same,mass density,"308.17 K, 9368.5 kPa",499.11 ± 2.4 kg/m3
same,mass density,"308.18 K, 8570.3 kPa",347.84 ± 2 kg/m3
same,mass density,"309.13 K, 7972 kPa",259.723 ± 0.88 kg/m3
same,mass density,"309.15 K, 8969.7 kPa",395.876 ± 2.3 kg/m3
same,mass density,"309.15 K, 9967.3 kPa",548.766 ± 1.8 kg/m3
same,mass density,"309.16 K, 9568.6 kPa",499.83 ± 2.2 kg/m3
same,mass density,"309.16 K, 9768.9 kPa",526.36 ± 2 kg/m3
same,mass density,"309.17 K, 8171 kPa",279.024 ± 1 kg/m3
same,mass density,"309.17 K, 8570.8 kPa",328.632 ± 1.6 kg/m3
same,mass density,"309.17 K, 8772.2 kPa",360.359 ± 2 kg/m3
same,mass density,"309.17 K, 9170.1 kPa",432.906 ± 2.5 kg/m3
same,mass density,"309.17 K, 9369 kPa",468.272 ± 2.4 kg/m3
same,mass density,"309.18 K, 8371.4 kPa",301.81 ± 1.3 kg/m3
same,mass density,"310.13 K, 7971.6 kPa",252.206 ± 0.8 kg/m3
same,mass density,"310.15 K, 9168.8 kPa",404.887 ± 2.2 kg/m3
same,mass density,"310.15 K, 9768.4 kPa",500.279 ± 2.1 kg/m3
same,mass density,"310.16 K, 9368.7 kPa",438.984 ± 2.3 kg/m3
same,mass density,"310.17 K, 8169.9 kPa",269.525 ± 0.91 kg/m3
same,mass density,"310.17 K, 8371.3 kPa",289.994 ± 1.1 kg/m3
same,mass density,"310.17 K, 8570.5 kPa",313.293 ± 1.3 kg/m3
same,mass density,"310.17 K, 8969.4 kPa",370.784 ± 1.9 kg/m3
same,mass density,"310.17 K, 9568.2 kPa",470.935 ± 2.2 kg/m3
same,mass density,"310.17 K, 9969.4 kPa",524.504 ± 1.9 kg/m3
same,mass density,"310.18 K, 8771.3 kPa",340.177 ± 1.6 kg/m3
same,mass density,"311.13 K, 7972.7 kPa",245.539 ± 0.72 kg/m3
same,mass density,"311.15 K, 8969.4 kPa",351.047 ± 1.6 kg/m3
same,mass density,"311.16 K, 9169.2 kPa",380.674 ± 1.9 kg/m3
same,mass density,"311.17 K, 8170.7 kPa",261.395 ± 0.82 kg/m3
same,mass density,"311.17 K, 8372.1 kPa",279.845 ± 0.96 kg/m3
same,mass density,"311.17 K, 8571.3 kPa",300.517 ± 1.1 kg/m3
same,mass density,"311.17 K, 9768.1 kPa",473.276 ± 2.1 kg/m3
same,mass density,"311.17 K, 9967.8 kPa",499.737 ± 2 kg/m3
same,mass density,"311.18 K, 9568.6 kPa",443.32 ± 2.1 kg/m3
same,mass density,"311.19 K, 8770.5 kPa",323.691 ± 1.4 kg/m3
same,mass density,"311.19 K, 9369 kPa",411.617 ± 2.1 kg/m3
same,mass density,"312.13 K, 7972.4 kPa",239.656 ± 0.67 kg/m3
same,mass density,"312.17 K, 8771.1 kPa",310.807 ± 1.2 kg/m3
same,mass density,"312.17 K, 9568.6 kPa",418.783 ± 1.9 kg/m3
same,mass density,"312.17 K, 9768.9 kPa",448.071 ± 2 kg/m3
same,mass density,"312.17 K, 9967.7 kPa",475.106 ± 2 kg/m3
same,mass density,"312.18 K, 8571.5 kPa",289.726 ± 0.99 kg/m3
same,mass density,"312.18 K, 9169.8 kPa",360.525 ± 1.6 kg/m3
same,mass density,"312.19 K, 8172.7 kPa",254.332 ± 0.74 kg/m3
same,mass density,"312.19 K, 8372.2 kPa",270.995 ± 0.85 kg/m3
same,mass density,"312.19 K, 8970.5 kPa",334.208 ± 1.4 kg/m3
same,mass density,"312.19 K, 9369.6 kPa",388.871 ± 1.8 kg/m3
same,mass density,"313.14 K, 7973.3 kPa",234.195 ± 0.64 kg/m3
same,mass density,"313.17 K, 8571.8 kPa",280.559 ± 0.88 kg/m3
same,mass density,"313.17 K, 8771.6 kPa",299.532 ± 1 kg/m3
same,mass density,"313.17 K, 8970.6 kPa",320.608 ± 1.2 kg/m3
same,mass density,"313.17 K, 9170.2 kPa",344.172 ± 1.4 kg/m3
same,mass density,"313.17 K, 9369.7 kPa",369.68 ± 1.6 kg/m3
same,mass density,"313.17 K, 9768.4 kPa",424.626 ± 1.9 kg/m3
same,mass density,"313.18 K, 8171.5 kPa",247.96 ± 0.68 kg/m3
same,mass density,"313.18 K, 8372.5 kPa",263.421 ± 0.77 kg/m3
same,mass density,"313.18 K, 9569.1 kPa",396.668 ± 1.8 kg/m3
